Source: article PMC12369603, “Functional characterization of antennae-enriched chemosensory protein 4 in emerald ash borer, Agrilus planipennis” (PeerJ, 2025)
“And” between values parts separate entries of the source, which are not always exact repeats. Identical values can stand only once. Like-named read-outs stand apart in the source and are kept apart here.

Key:
[1] = biological target: T1, recombinant AplaCSP4 (Agrilus planipennis chemosensory protein 4) (Agrilus planipennis, UniProt A0A1W4XLL0); test: biochemical; type: binding; conditions: for Competitive binding capability(%) / activity at 2 µM / activity at 4 µM / activity at 6 µM / activity at 8 µM / activity at 10 µM / activity at 12 µM: three replicate columns, 100 at 0 μM; for Kd: read-out: K D ±SE (dissociation constant); for binding to AplaCSP4 (in words): discussion of fluorescence competitive binding results
T1 sequence (A0A1W4XLL0 entry or part of it): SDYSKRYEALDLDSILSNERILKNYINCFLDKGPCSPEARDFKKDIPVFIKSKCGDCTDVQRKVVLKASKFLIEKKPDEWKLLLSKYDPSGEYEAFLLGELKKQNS
Procedure: Specifically, the binding affinities of AplaCSP4 for 43 volatile organic compounds were determined using F-380 fluorescence spectrophotometer (Tianjin, China) with a 10 nm slits and a 1 cm light path. These 43 substances are common green leaf volatiles, among which 16 volatiles originate from the ash tree. […]

[2] = biological target: T1, recombinant AplaCSP4 (Agrilus planipennis chemosensory protein 4); test: Binding of fluorescent probe 1-NPN to AplaCSP4 (titration); conditions: 2 µM protein in 50 mM Tris–HCl pH 7.4 titrated with 1-NPN 2-16 µM; read-out: binding affinity constant (KD) between 1-NPN and AplaCSP4
Procedure: Fluorescence competitive binding assays were conducted according to the method described by [Wang et al. (2021)]. Specifically, the binding affinities of AplaCSP4 for 43 volatile organic compounds were determined using F-380 fluorescence spectrophotometer (Tianjin, China) with a 10 nm slits and a 1 cm light path. These 43 substances are common green leaf volatiles, among which 16 volatiles originate from the ash tree. As the fluorescent probe, N-phenyl-1-naphthylamine (1-NPN) was excited at the wavelength of 337 nm, and emission spectra were recorded between 390 and 530 nm. […]

[3] = AplaCSP4 and 1-NPN each 2 µM, ligands with minimal binding single experiment, read-out: K D ±SE, “–” = no binding (IC50 >16 μM, KD not calculated)
[4] = ligand concentration 2 μM, 2 µM
[5] = ligand concentration 4 μM, 4 µM
[6] = ligand concentration 6 μM, 6 µM
[7] = ligand concentration 8 μM, 8 µM
[8] = ligand concentration 10 μM, 10 µM
[9] = ligand concentration 12 μM, 12 µM
[10] = pH 7.4, read-out: Competitive binding capability(%), ligand concentration 2 μM
[11] = pH 7.4, read-out: Competitive binding capability(%), ligand concentration 4 μM
[12] = pH 7.4, read-out: Competitive binding capability(%), ligand concentration 6 μM
[13] = pH 7.4, read-out: Competitive binding capability(%), ligand concentration 8 μM
[14] = pH 7.4, read-out: Competitive binding capability(%), ligand concentration 10 μM
[15] = pH 7.4, read-out: Competitive binding capability(%), ligand concentration 12 μM
[16] = pH 7.4, ligand concentration 2 μM, read-out: Competitive binding capability(%)
[17] = pH 7.4, ligand concentration 4 μM, read-out: Competitive binding capability(%)
[18] = pH 7.4, ligand concentration 6 μM, read-out: Competitive binding capability(%)
[19] = pH 7.4, ligand concentration 8 μM, read-out: Competitive binding capability(%)
[20] = pH 7.4, ligand concentration 10 μM, read-out: Competitive binding capability(%)
[21] = pH 7.4, ligand concentration 12 μM, read-out: Competitive binding capability(%)
[22] = AplaCSP4 and 1-NPN each 2 µM, 50 mM Tris–HCl pH 7.4, KD = IC50/(1+[1-NPN]/K1-NPN), mean of three experiments

CC12CCC(CC1)C(C)(C)O2 [1,8-Cineole]
IC50 [1]: > 16 µM

CC/C=C\CCO [cis-3-Hexen-1-ol]
IC50 [1]: > 16 µM

CCc1ccc(C(C)=O)cc1 [4′-Ethylacetophenone]
IC50 [1]: > 16 µM

CCCCCCCC=O [Octanal]
IC50 [1, 3]: > 16 µM

(±)-Citronellal
IC50 [1, 3]: > 16 µM

CC(C)=CCCC(C)=CC=O (mixture of isomers) [Citral]
IC50 [1]: > 16 µM

C=CC(O)CCCCC (stereo not drawn) [1-Octen-3-ol]
IC50 [1]: > 16 µM

CCCCCCCCC=O [Nonanal]
IC50 [1, 3]: > 16 µM

CCCCCCCCCC [Decane]
Competitive binding capability(%) [1, 4]: 60.8138% and 70.0208% | Competitive binding capability(%) [1, 5]: 45.6655% and 49.8433% | Competitive binding capability(%) [1, 6]: 42.3979% and 46.6766% | Competitive binding capability(%) [1, 7]: 41.2683% and 43.4013% | Competitive binding capability(%) [1, 8]: 39.2004% and 42.0377% | Competitive binding capability(%) [1, 9]: 38.5773% and 39.0548% | activity at 2 µM [1, 10]: 57.1% | activity at 4 µM [1, 11]: 45.8% | activity at 6 µM [1, 12]: 42.4% | activity at 8 µM [1, 13]: 40.4% | activity at 10 µM [1, 14]: 39.9% | activity at 12 µM [1, 15]: 38.2% | Kd [1]: 2.87 ± 0.44 µM

CC(=O)O[C@@H]1C[C@H]2CC[C@]1(C)C2(C)C (racemic) [Isobornyl acetate]
IC50 [1]: > 16 µM

N#CCc1ccccc1 [Phenylacetonitrile]
IC50 [1]: > 16 µM

CC/C=C\CCOC(=O)c1ccccc1 [cis-3-Hexenyl benzoate]
Competitive binding capability(%) [1, 4]: 79.0652% and 72.7217% | Competitive binding capability(%) [1, 5]: 62.6633% and 59.3339% | Competitive binding capability(%) [1, 6]: 52.3441% and 49.0753% | Competitive binding capability(%) [1, 7]: 45.5407% and 42.369% | Competitive binding capability(%) [1, 8]: 38.572% and 36.9717% | Competitive binding capability(%) [1, 9]: 34.5851% and 32.8537% | activity at 2 µM [1, 16]: 76.1% | activity at 4 µM [1, 17]: 61.8% | activity at 6 µM [1, 18]: 51.7% | activity at 8 µM [1, 19]: 44.5% | activity at 10 µM [1, 20]: 39.2% | activity at 12 µM [1, 21]: 35% | Kd [1]: 4.29 ± 0.18 µM

CCCCCCCCCC=O [Decanal]
IC50 [1, 3]: > 16 µM

C=C1CCC2CC1C2(C)C (stereo not drawn) [(-)-β-Pinene]
IC50 [1, 3]: > 16 µM

CC/C=C\CCOC(=O)CC(C)C [cis-3-Hexenyl isovalerate]
IC50 [1, 3]: > 16 µM

CCCCC=O [Valeraldehyde]
IC50 [1, 3]: > 16 µM

CCCCCCCCCCCC [Dodecane]
binding to AplaCSP4 (in words) [1]: binding capabilities | Competitive binding capability(%) [1, 4]: 62.371% and 59.0946% | Competitive binding capability(%) [1, 5]: 40.5144% and 36.3519% | Competitive binding capability(%) [1, 6]: 30.0968% and 29.949% | Competitive binding capability(%) [1, 7]: 26.7121% and 28.4784% | Competitive binding capability(%) [1, 8]: 26.2641% and 27.4122% | Competitive binding capability(%) [1, 9]: 25.5826% and 26.3545% | activity at 2 µM [1, 10]: 63.1% | activity at 4 µM [1, 11]: 37.5% | activity at 6 µM [1, 12]: 29.7% | activity at 8 µM [1, 13]: 27.4% | activity at 10 µM [1, 14]: 26.7% | activity at 12 µM [1, 15]: 25.8% | Kd [1]: 1.93 ± 0.09 µM

C=CC(C)=CCC=C(C)C [Ocimene]
Kd [1, 22]: 10.4 ± 1.11 µM | binding to AplaCSP4 (in words) [1]: binding capabilities | Competitive binding capability(%) ([1]; ligand concentration 2 μM): 93.4067% and 90.0634% and 92.7212% | Competitive binding capability(%) ([1]; ligand concentration 4 μM): 88.4911% and 81.8854% and 85.2152% | Competitive binding capability(%) ([1]; ligand concentration 6 μM): 82.5386% and 75.7215% and 76.2043% | Competitive binding capability(%) ([1]; ligand concentration 8 μM): 75.2984% and 68.1994% and 63.8599% | Competitive binding capability(%) ([1]; ligand concentration 10 μM): 69.6898% and 60.3453% and 57.9099% | Competitive binding capability(%) ([1]; ligand concentration 12 μM): 63.4481% and 55.0655% and 52.0519%

CCCCCCO [1-Hexanol]
IC50 [1]: > 16 µM

C=CC(C)(O)CCC=C(C)C (stereo not drawn) [Linalool]
IC50 [1]: > 16 µM

CCCCC(C)=O [2-Hexanone]
IC50 [1]: > 16 µM

C=C(C)C1CC=C(C)CC1 (single isomer, unassigned; (+)) [(+)-Limonene]
Kd [1, 22]: 11.3 ± 0.69 µM | binding to AplaCSP4 (in words) [1]: binding capabilities | Competitive binding capability(%) ([1]; ligand concentration 2 μM): 97.2535% and 97.4709% and 95.8953% | Competitive binding capability(%) ([1]; ligand concentration 4 μM): 90.8935% and 90.3604% and 88.2267% | Competitive binding capability(%) ([1]; ligand concentration 6 μM): 83.0381% and 84.401% and 80.748% | Competitive binding capability(%) ([1]; ligand concentration 8 μM): 77.7418% and 78.3215% and 71.3561% | Competitive binding capability(%) ([1]; ligand concentration 10 μM): 70.6734% and 71.72% and 63.3296% | Competitive binding capability(%) ([1]; ligand concentration 12 μM): 65.4243% and 64.4472% and 56.5332%

C=C1CC/C=C(\C)CC[C@@H]2[C@@H]1CC2(C)C [β-Caryophyllene]
IC50 [1]: > 16 µM

CCCCCCOC(C)=O [Hexyl acetate]
IC50 [1, 3]: > 16 µM

C=CCc1ccc(O)c(OC)c1 [Eugenol]
IC50 [1]: > 16 µM

c1ccc(Nc2cccc3ccccc23)cc1 [1-NPN, N-phenyl-1-naphthylamine]
Kd [2]: 9.36 µM

C=CC(=C)CCC=C(C)C [Myrcene]
binding to AplaCSP4 (in words) [1]: binding capabilities | Competitive binding capability(%) [1, 4]: 93.6207% and 95.326% | Competitive binding capability(%) [1, 5]: 85.4868% and 89.2675% | Competitive binding capability(%) [1, 6]: 76.2875% and 80.8277% | Competitive binding capability(%) [1, 7]: 67.6403% and 72.2022% | Competitive binding capability(%) [1, 8]: 61.2276% and 66.6056% | Competitive binding capability(%) [1, 9]: 55.297% and 60.7518% | activity at 2 µM [1, 16]: 93.4% | activity at 4 µM [1, 17]: 87% | activity at 6 µM [1, 18]: 75.3% | activity at 8 µM [1, 19]: 66.9% | activity at 10 µM [1, 20]: 61.1% | activity at 12 µM [1, 21]: 54.9% | Kd [1]: 9.9 ± 0.34 µM

CCCC/C=C/C=O [trans-2-Heptenal]
IC50 [1, 3]: > 16 µM

CC/C=C\CCOC(=O)C(C)C [cis-3-Hexenyl isobutyrate]
IC50 [1, 3]: > 16 µM

CCCCCCCCO [1-Octanol]
IC50 [1, 3]: > 16 µM

CCCCCCCC [n-Octane]
Competitive binding capability(%) [1, 4]: 86.2111% and 85.0437% | Competitive binding capability(%) [1, 5]: 71.3083% and 70.0543% | Competitive binding capability(%) [1, 6]: 57.8901% and 54.2819% | Competitive binding capability(%) [1, 7]: 46.7227% and 42.7241% | Competitive binding capability(%) [1, 8]: 38.967% and 35.7057% | Competitive binding capability(%) [1, 9]: 32.7961% and 31.347% | activity at 2 µM [1, 10]: 86% | activity at 4 µM [1, 11]: 67.9% | activity at 6 µM [1, 12]: 56.4% | activity at 8 µM [1, 13]: 45% | activity at 10 µM [1, 14]: 38.2% | activity at 12 µM [1, 15]: 31.4% | Kd [1]: 4.83 ± 0.11 µM

CC/C=C\CCOC(C)=O [cis-3-Hexenyl acetate]
IC50 [1, 3]: > 16 µM

CCC/C=C/COC(C)=O [trans-2-Hexenyl acetate]
IC50 [1, 3]: > 16 µM

CCCCCCCCCCCCCC [Tetradecane]
IC50 [1, 3]: > 16 µM

CCC/C=C/C=O [trans-2-Hexenal]
IC50 [1]: > 16 µM

C=C(C)[C@@H]1CC=C(C)C(=O)C1 [(R)-(-)-Carvone]
IC50 [1]: > 16 µM

O=Cc1ccccc1 [Benzaldehyde]
IC50 [1]: > 16 µM

CCCCCC=O [Hexanal]
IC50 [1]: > 16 µM

COC(=O)c1ccccc1 [Methyl benzoate]
IC50 [1]: > 16 µM

COC(=O)c1ccccc1O [Methyl salicylate]
IC50 [1]: > 16 µM

CCCCCCOC(=O)CCC [Hexyl butyrate]
Competitive binding capability(%) [1, 4]: 93.4207% and 91.053% | Competitive binding capability(%) [1, 5]: 84.76% and 83.3555% | Competitive binding capability(%) [1, 6]: 77.5021% and 75.6266% | Competitive binding capability(%) [1, 7]: 71.3681% and 69.2316% | Competitive binding capability(%) [1, 8]: 65.618% and 62.7841% | Competitive binding capability(%) [1, 9]: 61.0388% and 57.6483% | activity at 2 µM [1, 16]: 93.1% | activity at 4 µM [1, 17]: 85.4% | activity at 6 µM [1, 18]: 78.8% | activity at 8 µM [1, 19]: 72.2% | activity at 10 µM [1, 20]: 65.8% | activity at 12 µM [1, 21]: 61.7% | Kd [1]: 11.5 ± 0.42 µM
